Experimental data published in patent US20060019936A1 (priority 2004, published 2006).
“Also recorded” adds a separate entry of the source. Like-named read-outs stand apart in the source and are kept apart here.

Legend:
p21 (WAF1/Cip1) = format: cell-based, human
p45 Skp2 = format: cell-based, human
p27 (Kip1) = format: cell-based, human
LNCaP cells [1] = format: cell-based, human
c-Myc = c-Myc protein levels in LNCaP cells; format: cell-based, human
LNCaP cells [2] = assay: Cell cycle analysis by flow cytometry; format: cell-based, human
LNCaP cells [3] = format: cell-based, human; remark: listed apart in the source
PARP = format: cell-based, human
p70S6K = assay: Phosphorylation status of p70S6K in LNCaP cells; format: cell-based, human
Bid = Bid cleavage analysis; format: cell-based, human; settings: LNCaP cells
LNCaP cells [4] = assay: DNA fragmentation by agarose gel electrophoresis; format: cell-based, human; settings: 20 μM, 24 h exposure
rabbit uterine ER = molecular target: T1, rabbit uterine ER (Oryctolagus cuniculus, UniProt G1SML6); assay: Radiometric competitive binding assay for the ER (RBA); settings: RBA for estradiol is 100
T1 construct: from tissue; host or cells: rabbit uterus
T1 sequence (G1SML6 1-598): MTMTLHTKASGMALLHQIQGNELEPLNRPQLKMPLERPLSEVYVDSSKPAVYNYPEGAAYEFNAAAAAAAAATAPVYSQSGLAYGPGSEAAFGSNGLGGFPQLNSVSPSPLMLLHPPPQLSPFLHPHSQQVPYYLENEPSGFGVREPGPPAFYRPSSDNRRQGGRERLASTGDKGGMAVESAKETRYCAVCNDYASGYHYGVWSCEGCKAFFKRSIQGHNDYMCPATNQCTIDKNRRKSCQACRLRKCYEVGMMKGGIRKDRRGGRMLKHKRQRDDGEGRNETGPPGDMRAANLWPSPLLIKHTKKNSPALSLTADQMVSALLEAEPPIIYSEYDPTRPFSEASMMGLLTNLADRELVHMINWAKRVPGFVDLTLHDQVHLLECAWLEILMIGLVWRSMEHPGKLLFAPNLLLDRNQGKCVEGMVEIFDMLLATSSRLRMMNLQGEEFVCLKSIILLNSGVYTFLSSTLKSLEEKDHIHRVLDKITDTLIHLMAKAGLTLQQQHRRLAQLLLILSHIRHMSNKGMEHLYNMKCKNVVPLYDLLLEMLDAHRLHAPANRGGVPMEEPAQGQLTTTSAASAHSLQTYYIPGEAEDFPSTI

[5] = molecular target: T2, portion of the ER containing the estradiol binding site (Homo sapiens, UniProt P03372); assay: Electrophoretic gel mobility shift assay of DNA adducts with ER
T2 sequence (P03372 311-547 limits assumed): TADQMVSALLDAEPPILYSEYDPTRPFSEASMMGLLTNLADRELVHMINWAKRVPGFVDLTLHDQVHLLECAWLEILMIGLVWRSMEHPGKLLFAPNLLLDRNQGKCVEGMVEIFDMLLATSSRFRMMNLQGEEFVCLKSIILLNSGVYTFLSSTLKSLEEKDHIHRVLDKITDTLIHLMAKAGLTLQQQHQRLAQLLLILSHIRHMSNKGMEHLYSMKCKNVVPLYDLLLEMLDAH

[6] = system: MCF-7 (ER+) breast cancer cells; assay: Toxicity toward MCF-7 breast cancer cells; format: cell-based
[7] = system: MDA-MB231 (ER−) breast cancer cells; format: cell-based
[8] = pH 7.4
[9] = system: self complementary octamer deoxyoligonucleotide; assay: Reactivity with DNA (piperidine labile sites); format: biochemical

COCCN(CCOC)c1ccc(CCCNC(=O)OCCNCCCCCCC2CC3(C)C(O)CCC3C3CCC4=CC(=O)CCC4=C23)cc1 (stereo not drawn) [11β-dimethoxy]
eventual levels of p21 (p21 (WAF1/Cip1)): recovered to basal levels
initial change in levels of p21 (p21 (WAF1/Cip1)): initially decreased
levels of Skp2 (p45 Skp2): decreased
levels of p27 (p27 (Kip1)): increased
changes in LNCaP cell shape (LNCaP cells [1]): slight contraction, which was reversed by 24 h
levels of the c-Myc protein (c-Myc): causes c-Myc levels to drop
LNCaP cells in G1 (LNCaP cells [2]; 10 uM for 20 hr, flow cytometry): > 90%
cell cycle arrest (LNCaP cells [2]; LNCaP cells): halt, albeit transiently, the growth of LNCaP cells in the G1 phase of the cell cycle
apoptotic response (LNCaP cells [3]): did not activate an apoptotic response; also recorded: does not induce markers of apoptosis
toxic effect / cell killing (LNCaP cells [3]): transient toxic effect but does not kill cells
cleavage of PARP (PARP): No cleavage
effect on p70S6K (p70S6K): inhibits p70S6K

O=C(O)CCCc1ccc(N(CCCl)CCCl)cc1 [Chlorambucil, reference compound]
levels of p21 (p21 (WAF1/Cip1); LNCaP cells, 20 μM, up to 15 h): potent inducer of p21
levels of Skp2 (p45 Skp2; LNCaP cells, 20 μM, up to 15 h): unaffected
levels of p27 (p27 (Kip1); LNCaP cells, 20 μM, up to 15 h): without effect
changes in LNCaP cell shape (LNCaP cells [1]): no effect on cellular shape
apoptotic response (LNCaP cells [3]; LNCaP cells, single agent): fails to induce apoptosis
Bid cleavage (Bid): No changes
cleavage of PARP (PARP; 20 μM, LNCaP cells): No cleavage
DNA fragmentation (LNCaP cells [4]): No changes

CC12CCC3c4ccc(O)cc4CC(CCCCCCNCCOC(=O)NCCCc4ccc(N(CCCl)CCCl)cc4)C3C1CCC2O (stereo not drawn) [Compound 1, 7α-{N-(2-(N-((N,N-bis-2-chloroethylaminophenyl)propyl)-carbamoyloxy)ethyl)aminohexyl}-3,17β-dihydroxyestra-1,3,5(10)-triene]
relative binding affinity (RBA) for the ER (rabbit uterine ER): excellent affinity
complex formation of covalent DNA adducts with ER ([5]; gel mobility shift, band eliminated by excess estradiol): form complexes; also recorded: greatest affinity for the ER-LBD
differential toxicity MCF-7 (ER+) versus MDA-MB231 (ER−) ([6]; comparison of the two cell lines): significantly more toxic toward MCF-7 cells than MDA-MB231 cells; also recorded: largest differential toxicity

CC12CCC3c4ccc(O)cc4CC(CCCCCCNCCNC(=N)NCCCc4ccc(N(CCCl)CCCl)cc4)C3C1CCC2O (centres unmarked) [Compound 5]
relative binding affinity (RBA) for the ER (rabbit uterine ER): low RBAs
complex formation of covalent DNA adducts with ER [5]: form complexes; also recorded: virtually all of the modified oligonucleotide formed a slowly migrating band
toxicity at the highest dose [6]: neither compound showed significant toxicity
toxicity at the highest dose [7]: neither compound showed significant toxicity

CC12CCC3c4ccc(O)cc4CC(CCCCCCNC(=N)NCCCc4ccc(N(CCCl)CCCl)cc4)C3C1CCC2O (centres unmarked) [Compound 7]
relative binding affinity (RBA) for the ER (rabbit uterine ER): comparable affinities
complex formation of covalent DNA adducts with ER [5]: form complexes
toxicity at the highest dose [6]: neither compound showed significant toxicity
toxicity at the highest dose [7]: neither compound showed significant toxicity

CC12CCC3c4ccc(O)cc4CC(CCCCCCOC(=O)NCCCc4ccc(N(CCCl)CCCl)cc4)C3C1CCC2O (centres unmarked) [Compound 9]
logD [8]: > 5
relative binding affinity (RBA) for the ER (rabbit uterine ER): low RBAs
toxicity [6]: low toxicity
DNA modification, cleaved by piperidine [9]: 3%
toxicity [7]: low toxicity

O=P(NCCO)(c1ccccc1)c1ccccc1 [Compound 12]
logD [8]: high logD values
relative binding affinity (RBA) for the ER (rabbit uterine ER): comparable affinities
toxicity [6]: low toxicity
toxicity [7]: low toxicity

CC(C)(C)[Si](C)(C)OCCNP(=O)(c1ccccc1)c1ccccc1 [Compound 13]
relative binding affinity (RBA) for the ER (rabbit uterine ER): comparable affinities
complex formation of covalent DNA adducts with ER [5]: form complexes
differential toxicity MCF-7 (ER+) versus MDA-MB231 (ER−) [6]: greater toxicity toward the ER-positive MCF-7 cells
toxicity [6]: toxicity similar to that of 1
DNA modification, cleaved by piperidine [9]: 79%
toxicity [7]: toxicity similar to that of 1

CC12CCC3c4ccc(O)cc4CC(CCCCCCNC(=O)CCCc4ccc(N(CCCl)CCCl)cc4)C3C1CCC2O (centres unmarked) [Compound 14]
logD [8]: > 5
relative binding affinity (RBA) for the ER (rabbit uterine ER): low RBAs
toxicity [6]: low toxicity
DNA modification, cleaved by piperidine [9]: 14%
toxicity [7]: low toxicity

CC12CCC3c4ccc(O)cc4CC(CCCCCCNCCCCc4ccc(N(CCCl)CCCl)cc4)C3C1CCC2O (centres unmarked) [Compound 15]
relative binding affinity (RBA) for the ER (rabbit uterine ER): 40
complex formation of covalent DNA adducts with ER [5]: form complexes
differential toxicity MCF-7 (ER+) versus MDA-MB231 (ER−) [6]: greater toxicity toward the ER-positive MCF-7 cells
toxicity [6]: toxicity similar to that of 1
toxicity [7]: toxicity similar to that of 1
